Results from ChEMBL document CHEMBL1201862, “PubChem BioAssay data set” (2004).
Active and inactive are the calls of the source.

Experiments:
Candida albicans [1] = assay: growth inhibition of azole-resistant C. albicans, dose response, CaCi-8 strain, Alamar Blue, dry powder, set 2 (AID 488909); type: functional, organism-based
Candida albicans [2] = assay: reversal of fluconazole resistance in C. albicans, dose response, CaCi-2 strain, Alamar Blue, dry powder, set 3 (AID 488907); type: functional, organism-based
[3] = target: T1, Short transient receptor potential channel 4 (Mus musculus, UniProt Q9QUQ5); assay: TRPC4 inhibitor concentration-response, dose response, cell-based, HEK293 TRPC4/mu-opioid, DAMGO stimulus, Fluo-4 (AID 492994); type: functional
T1 sequence (Q9QUQ5 whole entry): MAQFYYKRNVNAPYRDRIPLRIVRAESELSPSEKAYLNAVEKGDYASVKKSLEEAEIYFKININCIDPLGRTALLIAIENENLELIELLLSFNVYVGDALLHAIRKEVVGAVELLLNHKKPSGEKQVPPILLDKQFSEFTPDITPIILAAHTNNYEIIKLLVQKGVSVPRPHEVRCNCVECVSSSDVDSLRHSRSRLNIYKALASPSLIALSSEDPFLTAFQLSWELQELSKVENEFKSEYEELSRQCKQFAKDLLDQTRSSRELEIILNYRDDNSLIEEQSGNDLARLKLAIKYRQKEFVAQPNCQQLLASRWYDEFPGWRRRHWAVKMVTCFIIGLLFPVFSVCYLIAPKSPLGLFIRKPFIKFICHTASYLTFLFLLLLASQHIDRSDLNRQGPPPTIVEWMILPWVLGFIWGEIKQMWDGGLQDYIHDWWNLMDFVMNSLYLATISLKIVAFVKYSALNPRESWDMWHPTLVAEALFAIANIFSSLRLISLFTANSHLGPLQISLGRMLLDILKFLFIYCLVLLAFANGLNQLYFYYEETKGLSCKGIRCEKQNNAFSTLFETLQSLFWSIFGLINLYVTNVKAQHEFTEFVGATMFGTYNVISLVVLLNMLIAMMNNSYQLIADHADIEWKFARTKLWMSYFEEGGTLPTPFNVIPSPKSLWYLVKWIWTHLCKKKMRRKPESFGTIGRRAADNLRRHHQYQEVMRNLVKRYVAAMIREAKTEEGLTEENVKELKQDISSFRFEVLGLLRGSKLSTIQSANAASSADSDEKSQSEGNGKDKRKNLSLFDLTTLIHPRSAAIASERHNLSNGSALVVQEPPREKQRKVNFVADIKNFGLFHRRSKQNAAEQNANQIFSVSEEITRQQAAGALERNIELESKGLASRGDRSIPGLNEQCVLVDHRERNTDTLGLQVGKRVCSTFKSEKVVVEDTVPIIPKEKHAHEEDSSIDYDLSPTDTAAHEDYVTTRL

[4] = target: T1, Short transient receptor potential channel 4; assay: SAR Analysis for the identification of selective inhibits of the transient receptor potential cation channel C4 (TRPC4): Automated Electrophysiology_2. [Related pubchem assays (depositor defined):AID2256]; type: functional
[5] = target: T2, Nuclear receptor subfamily 0 group B member 1 (Homo sapiens, UniProt P51843); assay: Luminescence-based cell-based high throughput dose response assay for inhibitors of the orphan nuclear receptor subfamily 0, group B, member 1 (DAX1; NR0B1). [Related pubchem assays (depositor defined):AID504766, AID504790]; type: functional
T2 sequence (P51843 whole entry): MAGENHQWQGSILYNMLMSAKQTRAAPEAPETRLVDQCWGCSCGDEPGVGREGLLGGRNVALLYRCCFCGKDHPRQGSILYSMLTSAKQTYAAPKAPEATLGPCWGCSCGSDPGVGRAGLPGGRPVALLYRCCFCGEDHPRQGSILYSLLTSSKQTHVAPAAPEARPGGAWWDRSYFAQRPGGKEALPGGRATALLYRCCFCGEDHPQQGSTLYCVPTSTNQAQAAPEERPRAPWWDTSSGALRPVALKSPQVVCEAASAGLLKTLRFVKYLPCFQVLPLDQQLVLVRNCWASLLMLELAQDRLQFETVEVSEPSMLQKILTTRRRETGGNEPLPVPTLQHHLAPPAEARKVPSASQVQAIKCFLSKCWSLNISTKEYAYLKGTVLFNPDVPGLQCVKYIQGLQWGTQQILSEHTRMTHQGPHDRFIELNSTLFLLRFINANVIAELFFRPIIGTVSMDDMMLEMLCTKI

HEK293 = assay: cells; type: functional, cell-based; details: Homo sapiens

CC(C)C(=O)N1CCN(c2ccnc3cc(Cl)ccc23)CC1
AC50 (Candida albicans [1]): < 0.195 µM (active) | AC50 (Candida albicans [2]): 3.03 µM (active)

Cc1cc(N2CC(C)CC(C)C2)nc2ccccc12 (stereo unspecified)
IC50 [3]: 12.6 µM (active) | IC50 [4]: 11.9 µM (active)

Cc1cc(OCC(=O)N2CCC(C(N)=O)CC2)c2c(C)cc(=O)oc2c1
IC50 [5]: > 67.6 µM (inactive) | IC50 (HEK293): > 67.6 µM (inactive)
